{"source": "patent US20260297070A1", "about": "“CYCLIC [COMPOUND LEFT OUT] WRN INHIBITORS” (Nimbus Wadjet, Inc., priority 2023, published 2026)"}
{"molecular_target": "T1, human Werner helicase (WRN-BV08, Uniprot Q14191, amino acids 517-1235 with L1074F point mutation) (Homo sapiens, UniProt Q14191, L1074F)", "T1 construct": "Uniprot Q14191, amino acids 517-1235 with L1074F point mutation; TEV-cleavable 8×His (C, cleaved yes); made in house; host or cells: Sf9 insect cells (baculovirus)", "T1 sequence (Q14191 with tags, fused parts or gaps L1074F limits assumed)": "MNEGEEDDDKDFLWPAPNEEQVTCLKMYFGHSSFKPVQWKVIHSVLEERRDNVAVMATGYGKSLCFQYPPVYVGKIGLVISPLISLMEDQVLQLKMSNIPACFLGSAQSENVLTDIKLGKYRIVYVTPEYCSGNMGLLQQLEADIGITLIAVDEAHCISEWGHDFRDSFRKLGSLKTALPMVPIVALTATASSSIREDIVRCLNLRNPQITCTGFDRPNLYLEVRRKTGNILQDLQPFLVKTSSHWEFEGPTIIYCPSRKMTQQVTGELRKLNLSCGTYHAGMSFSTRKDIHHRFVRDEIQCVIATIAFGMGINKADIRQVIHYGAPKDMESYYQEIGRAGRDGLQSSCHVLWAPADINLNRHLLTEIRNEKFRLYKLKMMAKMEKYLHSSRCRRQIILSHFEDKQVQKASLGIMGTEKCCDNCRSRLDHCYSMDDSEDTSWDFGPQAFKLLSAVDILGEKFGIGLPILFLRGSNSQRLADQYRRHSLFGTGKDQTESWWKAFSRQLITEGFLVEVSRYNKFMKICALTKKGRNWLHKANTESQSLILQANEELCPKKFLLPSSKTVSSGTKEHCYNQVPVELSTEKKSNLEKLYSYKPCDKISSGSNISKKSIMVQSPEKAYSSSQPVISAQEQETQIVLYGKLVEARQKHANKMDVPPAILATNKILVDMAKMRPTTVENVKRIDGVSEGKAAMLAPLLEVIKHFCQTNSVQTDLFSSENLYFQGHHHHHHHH", "test": "WRN (BV08) ADP-Glo Assay", "type": "biochemical", "settings": "0.15 nM WRN, 5 μM ATP, 0.1 nM DNA duplex, 15 min preincubation, 60 min at 25° C., pH 7.5, 1% DMSO; read-out: ADP-Glo_hWRN_IC50", "how_it_was_run": "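Percent inhibition was normalised to DMSO (max) and 20 μM NSC-617145 (min) controls from ADP-Glo luminescence, and IC50 values came from a four-parameter fit. The reaction ran 60 min at 25 °C with 0.15 nM WRN, 5 μM ATP and 0.1 nM duplex DNA.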", "units": {"IC50": "µM"}}
{"smiles": "O=C(Cc1ccc(S(F)(F)(F)(F)F)cc1)N(Cc1noc(C2CC2)n1)C1C=CS(=O)(=O)C1", "note": "(stereo not shown) [I-644, N-[(5-cyclopropyl-1,2,4-oxadiazol-3-yl)methyl]-N-(1,1-dioxo-2,3-dihydro-1lambda6-thiophen-3-yl)-2-[4-(pentafluoro-lambda6-sulfanyl)phenyl]acetamide]", "IC50": "0.5 to 5"}
{"smiles": "O=C(Cc1ccc(S(F)(F)(F)(F)F)cc1)N(Cc1nnc(C2CC2)s1)C1C=CS(=O)(=O)C1", "note": "(stereo not shown) [I-645, N-[(5-cyclopropyl-1,3,4-thiadiazol-2-yl)methyl]-N-(1,1-dioxo-2,3-dihydro-1lambda6-thiophen-3-yl)-2-[4-(pentafluoro-lambda6-sulfanyl)phenyl]acetamide]", "IC50": "0.5 to 5"}
{"smiles": "O=C(Cc1ccc(S(F)(F)(F)(F)F)cc1)N(Cc1ccnnc1)C1C=CS(=O)(=O)C1", "note": "(stereo not shown) [I-646, N-(1,1-dioxo-2,3-dihydro-1lambda6-thiophen-3-yl)-2-[4-(pentafluoro-lambda6-sulfanyl)phenyl]-N-[(pyridazin-4-yl)methyl]acetamide]", "IC50": "5 to 10"}
{"smiles": "O=C(C1CC(c2ccccc2)O1)N(Cc1ccncc1)C1C=CS(=O)(=O)C1", "note": "(stereo not shown) [I-647, N-(1,1-dioxo-2,3-dihydro-1lambda6-thiophen-3-yl)-4-phenyl-N-[(pyridin-4-yl)methyl]oxetane-2-carboxamide]", "IC50": "> 50"}
{"smiles": "O=C(Cc1ccc(S(F)(F)(F)(F)F)cc1)N(Cc1cnoc1)C1C=CS(=O)(=O)C1", "note": "(stereo not shown) [I-648, N-(1,1-dioxo-2,3-dihydro-1lambda6-thiophen-3-yl)-N-[(1,2-oxazol-4-yl)methyl]-2-[4-(pentafluoro-lambda6-sulfanyl)phenyl]acetamide]", "IC50": "5 to 10"}
{"smiles": "COc1ccc(C(F)(F)C(=O)N(Cc2ccncc2)C2C=CS(=O)(=O)C2)cc1", "note": "(stereo not shown) [I-649, N-(1,1-dioxo-2,3-dihydro-1lambda6-thiophen-3-yl)-2,2-difluoro-2-(4-methoxyphenyl)-N-[(pyridin-4-yl)methyl]acetamide]", "IC50": "> 50"}
{"smiles": "O=C(C1Cc2ccc(Cl)cc21)N(Cc1ccncc1)C1C=CS(=O)(=O)C1", "note": "(stereo not shown) [I-650, 4-chloro-N-(1,1-dioxo-2,3-dihydro-1lambda6-thiophen-3-yl)-N-[(pyridin-4-yl)methyl]bicyclo[4.2.0]octa-1,3,5-triene-7-carboxamide]", "IC50": "> 50"}
{"smiles": "O=C(C1CC(C(F)(F)F)CO1)N(Cc1ccncc1)C1C=CS(=O)(=O)C1", "note": "(stereo not shown) [I-651, N-(1,1-dioxo-2,3-dihydro-1lambda6-thiophen-3-yl)-N-[(pyridin-4-yl)methyl]-4-(trifluoromethyl)oxolane-2-carboxamide]", "IC50": "> 50"}
{"smiles": "O=C(C1CCc2cc(Cl)ccc2O1)N(Cc1ccncc1)C1C=CS(=O)(=O)C1", "note": "(stereo not shown) [I-653, 6-chloro-N-(1,1-dioxo-2,3-dihydro-1lambda6-thiophen-3-yl)-N-[(pyridin-4-yl)methyl]-3,4-dihydro-2H-1-benzopyran-2-carboxamide]", "IC50": "> 50"}
{"smiles": "O=C(C1CCC2(CCC2)CO1)N(Cc1ccncc1)C1C=CS(=O)(=O)C1", "note": "(stereo not shown) [I-654, N-(1,1-dioxo-2,3-dihydro-1lambda6-thiophen-3-yl)-N-[(pyridin-4-yl)methyl]-6-oxaspiro[3.5]nonane-7-carboxamide]", "IC50": "> 50"}
{"smiles": "Cn1cc2cc(CC(=O)N(Cc3ccncc3)C3C=CS(=O)(=O)C3)ccc2n1", "note": "(stereo not shown) [I-656, N-(1,1-dioxo-2,3-dihydro-1lambda6-thiophen-3-yl)-2-(2-methyl-2H-indazol-5-yl)-N-[(pyridin-4-yl)methyl]acetamide]", "IC50": "> 50"}
{"smiles": "O=C(Cc1ccc(S(F)(F)(F)(F)F)cc1)N(Cc1cscn1)C1C=CS(=O)(=O)C1", "note": "(stereo not shown) [I-657, N-(1,1-dioxo-2,3-dihydro-1lambda6-thiophen-3-yl)-2-[4-(pentafluoro-lambda6-sulfanyl)phenyl]-N-[(1,3-thiazol-4-yl)methyl]acetamide]", "IC50": "0.5 to 5"}
{"smiles": "O=C(C1CCc2ccc(Br)cc21)N(Cc1ccncc1)C1C=CS(=O)(=O)C1", "note": "(stereo not shown) [I-658, 6-bromo-N-(1,1-dioxo-2,3-dihydro-1lambda6-thiophen-3-yl)-N-[(pyridin-4-yl)methyl]-2,3-dihydro-1H-indene-1-carboxamide]", "IC50": "> 50"}
{"smiles": "CC(C)c1csc(CN(C(=O)Cc2ccc(S(F)(F)(F)(F)F)cc2)C2C=CS(=O)(=O)C2)n1", "note": "(stereo not shown) [I-659, N-(1,1-dioxo-2,3-dihydro-1lambda6-thiophen-3-yl)-2-[4-(pentafluoro-lambda6-sulfanyl)phenyl]-N-{[4-(propan-2-yl)-1,3-thiazol-2-yl]methyl}acetamide]", "IC50": "< 0.5"}
{"smiles": "COc1cc(CN(C(=O)Cn2ccc(-c3ccc(F)cc3)cc2=O)[C@@H]2C=CS(=O)(=O)C2)ccn1", "note": "[I-660, N-[(3R)-1,1-dioxo-2,3-dihydro-1lambda6-thiophen-3-yl]-2-[4-(4-fluorophenyl)-2-oxo-1,2-dihydropyridin-1-yl]-N-[(2-methoxypyridin-4-yl)methyl]acetamide]", "IC50": "< 0.5"}
{"smiles": "O=C(Cn1cc(-c2ccc(F)cc2)cn1)N(Cc1ccnc(OC(F)F)c1)C1C=CS(=O)(=O)C1", "note": "(stereo not shown) [I-662, N-{[2-(difluoromethoxy)pyridin-4-yl]methyl}-N-(1,1-dioxo-2,3-dihydro-1lambda6-thiophen-3-yl)-2-[4-(4-fluorophenyl)-1H-pyrazol-1-yl]acetamide]", "IC50": "< 0.5"}
{"smiles": "CS(=O)(=O)N1CCN(C(=O)C(C(=O)N(Cc2ccncc2)C2C=CS(=O)(=O)C2)c2ccc(-c3ccc(F)cc3)cc2)CC1", "note": "(stereo not shown) [I-666, N-(1,1-dioxo-2,3-dihydro-1lambda6-thiophen-3-yl)-2-{4′-fluoro-[1,1′-biphenyl]-4-yl}-3-(4-methanesulfonylpiperazin-1-yl)-3-oxo-N-[(pyridin-4-yl)methyl]propanamide]", "IC50": "5 to 10"}
{"smiles": "CC(=O)N1CCN(C(=O)C(C(=O)N(Cc2ccncc2)C2C=CS(=O)(=O)C2)c2ccc(-c3ccc(F)cc3)cc2)CC1", "note": "(stereo not shown) [I-667, 3-(4-acetylpiperazin-1-yl)-N-(1,1-dioxo-2,3-dihydro-1lambda6-thiophen-3-yl)-2-{4′-fluoro-[1,1′-biphenyl]-4-yl}-3-oxo-N-[(pyridin-4-yl)methyl]propanamide]", "IC50": "0.5 to 5"}
{"smiles": "COc1cc(CN(C(=O)Cc2ccc(-c3ccc(F)cn3)c(O)c2)C2C=CS(=O)(=O)C2)ccn1", "note": "(stereo not shown) [I-668, N-(1,1-dioxo-2,3-dihydro-1lambda6-thiophen-3-yl)-2-[4-(5-fluoropyridin-2-yl)-3-hydroxyphenyl]-N-[(2-methoxypyridin-4-yl)methyl]acetamide]", "IC50": "5 to 10"}
{"smiles": "O=C(C(c1ccc(-c2ccc(F)cc2)cc1)C1CC1)N(Cc1ccncc1)C1C=CS(=O)(=O)C1", "note": "(stereo not shown) [I-677, 2-cyclopropyl-N-(1,1-dioxo-2,3-dihydro-1lambda6-thiophen-3-yl)-2-{4′-fluoro-[1,1′-biphenyl]-4-yl}-N-[(pyridin-4-yl)methyl]acetamide]", "IC50": "10 to 50"}
{"smiles": "O=C(C1CCc2cc(Br)ccc2O1)N(Cc1ccncc1)C1C=CS(=O)(=O)C1", "note": "(stereo not shown) [I-678, 6-bromo-N-(1,1-dioxo-2,3-dihydro-1lambda6-thiophen-3-yl)-N-[(pyridin-4-yl)methyl]-3,4-dihydro-2H-1-benzopyran-2-carboxamide]", "IC50": "> 50"}
{"smiles": "O=C(Cc1ccc(S(F)(F)(F)(F)F)cc1)N(CCc1nccs1)C1C=CS(=O)(=O)C1", "note": "(stereo not shown) [I-679, N-(1,1-dioxo-2,3-dihydro-1lambda6-thiophen-3-yl)-2-[4-(pentafluoro-lambda6-sulfanyl)phenyl]-N-[2-(1,3-thiazol-2-yl)ethyl]acetamide]", "IC50": "0.5 to 5"}
